From the supplement of paper PMC10307832

Legend:
Assay in all cases: relative viability (nuclei count vs DMSO), 5 days (fraction); higher = more cells survive
Vismodegib + Luminespib = compound: CS(=O)(=O)c1ccc(C(=O)Nc2ccc(Cl)c(-c3ccccn3)c2)c(Cl)c1 [Vismodegib] + CCNC(=O)c1noc(-c2cc(C(C)C)c(O)cc2O)c1-c1ccc(CN2CCOCC2)cc1 [Luminespib] (partner 0.01 µM)
Summary of the method: (§1)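 Lung cancer cell lines were pin-tool dosed in 1536-well plates on the day after seeding, with either a lone drug or a fixed anchor-drug dose plus five library-drug doses (not always all listed) in √10 steps. Nuclei were counted on 4× images after 5 days. Relative viability is the ratio of treated-well to vehicle-well nuclei counts, with each value a median of duplicate plates.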

Ruxolitinib + Luminespib = compound: N#CC[C@H](C1CCCC1)n1cc(-c2ncnc3[nH]ccc23)cn1 [Ruxolitinib] + CCNC(=O)c1noc(-c2cc(C(C)C)c(O)cc2O)c1-c1ccc(CN2CCOCC2)cc1 [Luminespib] (partner 0.01 µM)
Summary of the method: as §1

Ruxolitinib + Crizotinib = compound: N#CC[C@H](C1CCCC1)n1cc(-c2ncnc3[nH]ccc23)cn1 [Ruxolitinib] + C[C@@H](Oc1cc(-c2cnn(C3CCNCC3)c2)cnc1N)c1c(Cl)ccc(F)c1Cl [Crizotinib] (partner 1 µM)
Summary of the method: as §1

Ruxolitinib + Phenformin = compound: N#CC[C@H](C1CCCC1)n1cc(-c2ncnc3[nH]ccc23)cn1 [Ruxolitinib] + N=C(N)NC(=N)NCCc1ccccc1 [Phenformin] (partner 250 µM)
Summary of the method: as §1

Cell Line: NCI-H1915
- relative viability (Vismodegib + Luminespib; first compound 0.08 µM): 0.759
- relative viability (Vismodegib + Luminespib; first compound 0.253 µM): 0.758
- relative viability (Vismodegib + Luminespib; first compound 0.8 µM): 0.785
- relative viability (Vismodegib + Luminespib; first compound 2.53 µM): 0.837
- relative viability (Vismodegib + Luminespib; first compound 8 µM): 0.769
- relative viability (Ruxolitinib + Luminespib; first compound 0.08 µM): 0.711
- relative viability (Ruxolitinib + Luminespib; first compound 0.253 µM): 0.762
- relative viability (Ruxolitinib + Luminespib; first compound 0.8 µM): 0.83
- relative viability (Ruxolitinib + Luminespib; first compound 2.53 µM): 0.578
- relative viability (Ruxolitinib + Luminespib; first compound 8 µM): 0.503
- relative viability (Ruxolitinib + Crizotinib; first compound 0.08 µM): 0.903
- relative viability (Ruxolitinib + Crizotinib; first compound 0.253 µM): 0.925
- relative viability (Ruxolitinib + Crizotinib; first compound 0.8 µM): 1.01
- relative viability (Ruxolitinib + Crizotinib; first compound 2.53 µM): 0.835
- relative viability (Ruxolitinib + Crizotinib; first compound 8 µM): 0.864
- relative viability (Ruxolitinib + Phenformin; first compound 0.08 µM): 0.375
- relative viability (Ruxolitinib + Phenformin; first compound 0.253 µM): 0.41
- relative viability (Ruxolitinib + Phenformin; first compound 0.8 µM): 0.384
- relative viability (Ruxolitinib + Phenformin; first compound 2.53 µM): 0.358
- relative viability (Ruxolitinib + Phenformin; first compound 8 µM): 0.343

Cell Line: NCI-H358
- relative viability (Vismodegib + Luminespib; first compound 0.08 µM): 0.325
- relative viability (Vismodegib + Luminespib; first compound 0.253 µM): 0.258
- relative viability (Vismodegib + Luminespib; first compound 0.8 µM): 0.418
- relative viability (Vismodegib + Luminespib; first compound 2.53 µM): 0.33
- relative viability (Vismodegib + Luminespib; first compound 8 µM): 0.204
- relative viability (Ruxolitinib + Luminespib; first compound 0.08 µM): 0.309
- relative viability (Ruxolitinib + Luminespib; first compound 0.253 µM): 0.238
- relative viability (Ruxolitinib + Luminespib; first compound 0.8 µM): 0.312
- relative viability (Ruxolitinib + Luminespib; first compound 2.53 µM): 0.362
- relative viability (Ruxolitinib + Luminespib; first compound 8 µM): 0.168
- relative viability (Ruxolitinib + Crizotinib; first compound 0.08 µM): 0.677
- relative viability (Ruxolitinib + Crizotinib; first compound 0.253 µM): 0.577
- relative viability (Ruxolitinib + Crizotinib; first compound 0.8 µM): 0.686
- relative viability (Ruxolitinib + Crizotinib; first compound 2.53 µM): 0.512
- relative viability (Ruxolitinib + Crizotinib; first compound 8 µM): 0.417
- relative viability (Ruxolitinib + Phenformin; first compound 0.08 µM): 0.291
- relative viability (Ruxolitinib + Phenformin; first compound 0.253 µM): 0.271
- relative viability (Ruxolitinib + Phenformin; first compound 0.8 µM): 0.319
- relative viability (Ruxolitinib + Phenformin; first compound 2.53 µM): 0.189
- relative viability (Ruxolitinib + Phenformin; first compound 8 µM): 0.26

Cell Line: NCI-H23
- relative viability (Vismodegib + Luminespib; first compound 0.08 µM): 0.25
- relative viability (Vismodegib + Luminespib; first compound 0.8 µM): 0.198
- relative viability (Vismodegib + Luminespib; first compound 2.53 µM): 0.258
- relative viability (Vismodegib + Luminespib; first compound 8 µM): 0.227
- relative viability (Ruxolitinib + Luminespib; first compound 0.08 µM): 0.195
- relative viability (Ruxolitinib + Luminespib; first compound 0.253 µM): 0.209
- relative viability (Ruxolitinib + Luminespib; first compound 0.8 µM): 0.242
- relative viability (Ruxolitinib + Luminespib; first compound 2.53 µM): 0.214
- relative viability (Ruxolitinib + Luminespib; first compound 8 µM): 0.191
- relative viability (Ruxolitinib + Crizotinib; first compound 0.08 µM): 0.457
- relative viability (Ruxolitinib + Crizotinib; first compound 0.253 µM): 0.527
- relative viability (Ruxolitinib + Crizotinib; first compound 0.8 µM): 0.71
- relative viability (Ruxolitinib + Crizotinib; first compound 2.53 µM): 0.43
- relative viability (Ruxolitinib + Crizotinib; first compound 8 µM): 0.488
- relative viability (Ruxolitinib + Phenformin; first compound 0.08 µM): 0.892
- relative viability (Ruxolitinib + Phenformin; first compound 0.253 µM): 0.807
- relative viability (Ruxolitinib + Phenformin; first compound 0.8 µM): 0.804
- relative viability (Ruxolitinib + Phenformin; first compound 2.53 µM): 0.67
- relative viability (Ruxolitinib + Phenformin; first compound 8 µM): 0.727

Cell Line: NCI-H1395
- relative viability (Vismodegib + Luminespib; first compound 0.08 µM): 0.708
- relative viability (Vismodegib + Luminespib; first compound 0.253 µM): 0.764
- relative viability (Vismodegib + Luminespib; first compound 0.8 µM): 0.535
- relative viability (Vismodegib + Luminespib; first compound 2.53 µM): 0.624
- relative viability (Vismodegib + Luminespib; first compound 8 µM): 0.621
- relative viability (Ruxolitinib + Luminespib; first compound 0.08 µM): 0.89
- relative viability (Ruxolitinib + Luminespib; first compound 0.253 µM): 0.661
- relative viability (Ruxolitinib + Luminespib; first compound 0.8 µM): 0.863
- relative viability (Ruxolitinib + Luminespib; first compound 2.53 µM): 0.623
- relative viability (Ruxolitinib + Luminespib; first compound 8 µM): 0.592
- relative viability (Ruxolitinib + Phenformin; first compound 0.08 µM): 0.435
- relative viability (Ruxolitinib + Phenformin; first compound 0.253 µM): 0.418
- relative viability (Ruxolitinib + Phenformin; first compound 0.8 µM): 0.489
- relative viability (Ruxolitinib + Phenformin; first compound 2.53 µM): 0.455
- relative viability (Ruxolitinib + Phenformin; first compound 8 µM): 0.408

Cell Line: A549
- relative viability (Ruxolitinib + Crizotinib; first compound 0.08 µM): 0.782
- relative viability (Ruxolitinib + Crizotinib; first compound 0.253 µM): 0.891
- relative viability (Ruxolitinib + Crizotinib; first compound 0.8 µM): 0.855
- relative viability (Ruxolitinib + Crizotinib; first compound 2.53 µM): 0.692
- relative viability (Ruxolitinib + Crizotinib; first compound 8 µM): 0.293
- relative viability (Ruxolitinib + Phenformin; first compound 0.08 µM): 0.0714
- relative viability (Ruxolitinib + Phenformin; first compound 0.253 µM): 0.144
- relative viability (Ruxolitinib + Phenformin; first compound 0.8 µM): 0.198
- relative viability (Ruxolitinib + Phenformin; first compound 2.53 µM): 0.127
- relative viability (Ruxolitinib + Phenformin; first compound 8 µM): 0.15

Cell Line: NCI-H1623
- relative viability (Vismodegib + Luminespib; first compound 0.08 µM): 0.483
- relative viability (Vismodegib + Luminespib; first compound 0.253 µM): 0.439
- relative viability (Vismodegib + Luminespib; first compound 0.8 µM): 0.611
- relative viability (Vismodegib + Luminespib; first compound 2.53 µM): 0.457
- relative viability (Vismodegib + Luminespib; first compound 8 µM): 0.6
- relative viability (Ruxolitinib + Luminespib; first compound 0.08 µM): 0.423
- relative viability (Ruxolitinib + Luminespib; first compound 0.253 µM): 0.431
- relative viability (Ruxolitinib + Luminespib; first compound 0.8 µM): 0.705
- relative viability (Ruxolitinib + Luminespib; first compound 2.53 µM): 0.526
- relative viability (Ruxolitinib + Luminespib; first compound 8 µM): 0.765
- relative viability (Ruxolitinib + Phenformin; first compound 0.08 µM): 0.525
- relative viability (Ruxolitinib + Phenformin; first compound 0.253 µM): 0.608
- relative viability (Ruxolitinib + Phenformin; first compound 0.8 µM): 0.574
- relative viability (Ruxolitinib + Phenformin; first compound 2.53 µM): 0.637
- relative viability (Ruxolitinib + Phenformin; first compound 8 µM): 0.343

Cell Line: HCC-366
- relative viability (Ruxolitinib + Crizotinib; first compound 0.08 µM): 0.513
- relative viability (Ruxolitinib + Crizotinib; first compound 0.253 µM): 0.551
- relative viability (Ruxolitinib + Crizotinib; first compound 0.8 µM): 0.549
- relative viability (Ruxolitinib + Crizotinib; first compound 2.53 µM): 0.449
- relative viability (Ruxolitinib + Crizotinib; first compound 8 µM): 0.257
- relative viability (Ruxolitinib + Phenformin; first compound 0.08 µM): 0.584
- relative viability (Ruxolitinib + Phenformin; first compound 0.253 µM): 0.654
- relative viability (Ruxolitinib + Phenformin; first compound 0.8 µM): 0.667
- relative viability (Ruxolitinib + Phenformin; first compound 2.53 µM): 0.542
- relative viability (Ruxolitinib + Phenformin; first compound 8 µM): 0.472

Cell Line: HCC-78
- relative viability (Ruxolitinib + Crizotinib; first compound 0.08 µM): 0.305
- relative viability (Ruxolitinib + Crizotinib; first compound 0.253 µM): 0.273
- relative viability (Ruxolitinib + Crizotinib; first compound 0.8 µM): 0.308
- relative viability (Ruxolitinib + Crizotinib; first compound 2.53 µM): 0.322
- relative viability (Ruxolitinib + Crizotinib; first compound 8 µM): 0.324
- relative viability (Ruxolitinib + Phenformin; first compound 0.08 µM): 0.756
- relative viability (Ruxolitinib + Phenformin; first compound 0.253 µM): 0.563
- relative viability (Ruxolitinib + Phenformin; first compound 0.8 µM): 0.788
- relative viability (Ruxolitinib + Phenformin; first compound 2.53 µM): 0.662
- relative viability (Ruxolitinib + Phenformin; first compound 8 µM): 0.729

Cell Line: IA-LM
- relative viability (Ruxolitinib + Crizotinib; first compound 0.08 µM): 0.886
- relative viability (Ruxolitinib + Crizotinib; first compound 0.253 µM): 1.05
- relative viability (Ruxolitinib + Crizotinib; first compound 0.8 µM): 0.791
- relative viability (Ruxolitinib + Crizotinib; first compound 2.53 µM): 0.849
- relative viability (Ruxolitinib + Crizotinib; first compound 8 µM): 0.638

Cell Line: NCI-H522
- relative viability (Vismodegib + Luminespib; first compound 0.08 µM): 1.1
- relative viability (Vismodegib + Luminespib; first compound 0.253 µM): 1.1
- relative viability (Vismodegib + Luminespib; first compound 0.8 µM): 0.939
- relative viability (Vismodegib + Luminespib; first compound 2.53 µM): 1.34
- relative viability (Vismodegib + Luminespib; first compound 8 µM): 1.09
- relative viability (Ruxolitinib + Luminespib; first compound 0.08 µM): 1.14
- relative viability (Ruxolitinib + Luminespib; first compound 0.253 µM): 1.81
- relative viability (Ruxolitinib + Luminespib; first compound 0.8 µM): 1.25
- relative viability (Ruxolitinib + Luminespib; first compound 2.53 µM): 0.884
- relative viability (Ruxolitinib + Luminespib; first compound 8 µM): 1.64
- relative viability (Ruxolitinib + Phenformin; first compound 0.08 µM): 0.663
- relative viability (Ruxolitinib + Phenformin; first compound 0.253 µM): 0.644
- relative viability (Ruxolitinib + Phenformin; first compound 0.8 µM): 0.728
- relative viability (Ruxolitinib + Phenformin; first compound 2.53 µM): 0.575
- relative viability (Ruxolitinib + Phenformin; first compound 8 µM): 0.617

Cell Line: EBC-1
- relative viability (Ruxolitinib + Crizotinib; first compound 0.08 µM): 0.191
- relative viability (Ruxolitinib + Crizotinib; first compound 0.8 µM): 0.21
- relative viability (Ruxolitinib + Crizotinib; first compound 2.53 µM): 0.204
- relative viability (Ruxolitinib + Crizotinib; first compound 8 µM): 0.202

Cell Line: Calu-6
- relative viability (Ruxolitinib + Crizotinib; first compound 0.08 µM): 0.797
- relative viability (Ruxolitinib + Crizotinib; first compound 0.253 µM): 0.676
- relative viability (Ruxolitinib + Crizotinib; first compound 0.8 µM): 1
- relative viability (Ruxolitinib + Crizotinib; first compound 2.53 µM): 0.711
- relative viability (Ruxolitinib + Crizotinib; first compound 8 µM): 0.399

Cell Line: NCI-H1793
- relative viability (Vismodegib + Luminespib; first compound 0.253 µM): 0.214
- relative viability (Vismodegib + Luminespib; first compound 0.8 µM): 0.189
- relative viability (Vismodegib + Luminespib; first compound 2.53 µM): 0.482
- relative viability (Vismodegib + Luminespib; first compound 8 µM): 0.19
- relative viability (Ruxolitinib + Luminespib; first compound 0.08 µM): 0.221
- relative viability (Ruxolitinib + Luminespib; first compound 0.253 µM): 0.204
- relative viability (Ruxolitinib + Luminespib; first compound 0.8 µM): 0.169
- relative viability (Ruxolitinib + Luminespib; first compound 2.53 µM): 0.156
- relative viability (Ruxolitinib + Luminespib; first compound 8 µM): 0.136
- relative viability (Ruxolitinib + Phenformin; first compound 0.08 µM): 0.361
- relative viability (Ruxolitinib + Phenformin; first compound 0.253 µM): 0.345
- relative viability (Ruxolitinib + Phenformin; first compound 0.8 µM): 0.368
- relative viability (Ruxolitinib + Phenformin; first compound 2.53 µM): 0.338
- relative viability (Ruxolitinib + Phenformin; first compound 8 µM): 0.304
